According to ChEMBL document CHEMBL4152269, “New N-phenylpyrrolamide DNA gyrase B inhibitors: Optimization of efficacy and antibacterial activity” (Eur J Med Chem, 2018):
≈ marks a conversion by molar mass, not a printed value.

Experiments:
[1] = system: Enterococcus faecalis; experiment: Growth inhibition of Enterococcus faecalis ATCC 29212 at 50 uM after 24 hrs by broth microdilution method relative to control; assay type: functional; conditions: ATCC 29212, 24 h, read-out: GI
[2] = system: Pseudomonas aeruginosa; experiment: Growth inhibition of Pseudomonas aeruginosa ATCC 27853 at 50 uM after 24 hrs by broth microdilution method relative to control; assay type: functional; conditions: ATCC 27853, 24 h, read-out: GI
[3] = system: Escherichia coli; experiment: Growth inhibition of Escherichia coli ATCC 25922 at 50 uM after 24 hrs by broth microdilution method relative to control; assay type: functional; conditions: ATCC 25922, 24 h, read-out: GI
[4] = system: Staphylococcus aureus; experiment: Growth inhibition of Staphylococcus aureus ATCC 25923 at 50 uM after 24 hrs by broth microdilution method relative to control; assay type: functional; conditions: ATCC 25923, 24 h, read-out: GI
[5] = molecular target: DNA gyrase subunit B (Escherichia coli, UniProt P0AES6); experiment: Inhibition of Escherichia coli DNA gyrase by supercoiling assay
[6] = molecular target: DNA gyrase subunit B (Staphylococcus aureus, UniProt P0A0K8); experiment: Inhibition of Staphylococcus aureus DNA gyrase B preincubated for 10 mins followed by ATP addition measured after 30 mins by purine nucleoside phosphorylase enzyme coupled spectrophotometric method
Sequence of DNA gyrase subunit B (Staphylococcus aureus, UniProt P0A0K8) (P0A0K8 whole entry): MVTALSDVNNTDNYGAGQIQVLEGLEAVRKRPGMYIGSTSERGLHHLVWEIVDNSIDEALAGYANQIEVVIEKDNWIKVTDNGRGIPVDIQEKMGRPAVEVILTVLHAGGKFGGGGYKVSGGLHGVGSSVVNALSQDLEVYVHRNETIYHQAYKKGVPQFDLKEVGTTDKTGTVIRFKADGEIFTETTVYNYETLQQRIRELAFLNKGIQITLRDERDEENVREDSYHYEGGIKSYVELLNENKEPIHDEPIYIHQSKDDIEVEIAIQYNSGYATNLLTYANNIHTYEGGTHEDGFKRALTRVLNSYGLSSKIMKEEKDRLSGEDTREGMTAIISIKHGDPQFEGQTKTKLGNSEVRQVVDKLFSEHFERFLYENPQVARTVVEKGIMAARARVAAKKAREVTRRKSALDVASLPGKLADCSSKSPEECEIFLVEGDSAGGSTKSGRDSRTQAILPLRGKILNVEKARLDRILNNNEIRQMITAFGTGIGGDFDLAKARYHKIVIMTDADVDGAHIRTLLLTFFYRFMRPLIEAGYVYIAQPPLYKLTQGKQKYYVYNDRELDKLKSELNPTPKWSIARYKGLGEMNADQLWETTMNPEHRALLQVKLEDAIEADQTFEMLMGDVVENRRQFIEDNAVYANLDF

[7] = system: Escherichia coli; experiment: Growth inhibition of lpxC deficient Escherichia coli JD17464 at 50 uM after 24 hrs by broth microdilution method relative to control; assay type: functional; conditions: JD17464, 24 h, read-out: GI
[8] = system: Staphylococcus aureus; experiment: Inhibition of Staphylococcus aureus topoisomerase-4 assessed as residual activity at 1 uM preincubated for 10 mins followed by ATP addition measured after 30 mins by purine nucleoside phosphorylase enzyme coupled spectrophotometric method relative to control
[9] = system: Escherichia coli; experiment: Growth inhibition of tolC deficient Escherichia coli JW5503 at 50 uM after 24 hrs by broth microdilution method relative to control; assay type: functional; conditions: JW5503, 24 h, read-out: GI
[10] = system: Enterococcus faecalis; experiment: Antibacterial activity against Enterococcus faecalis ATCC 29212 after 18 hrs by broth microdilution method; assay type: functional; conditions: ATCC 29212, 18 h
[11] = system: Escherichia coli; experiment: Antibacterial activity against tolC deficient Escherichia coli JW5503 after 18 hrs by broth microdilution method; assay type: functional; conditions: JW5503, 18 h
[12] = Inhibition of Escherichia coli C-terminal His6-tagged topoisomerase-4 expressed in Escherichia coli BL21(DE3) preincubated for 10 mins followed by ATP addition measured after 30 mins by purine nucleoside phosphorylase enzyme coupled spectrophotometric method
[13] = Inhibition of Staphylococcus aureus topoisomerase-4 assessed as residual activity preincubated for 10 mins followed by ATP addition measured after 30 mins by purine nucleoside phosphorylase enzyme coupled spectrophotometric method

| SMILES | inhibition of growth at 50 µM [1] [%] | inhibition of growth at 50 µM [2] [%] | inhibition of growth at 50 µM [3] [%] | inhibition of growth at 50 µM [4] [%] | IC50 [5] [nM] | IC50 [6] [nM] | inhibition of growth at 50 µM [7] [%] | Activity [8] [%] | inhibition of growth at 50 µM [9] [%] | MIC90 [10] [µM] | MIC90 [11] [µM] | IC50 [12] [nM] | IC50 [13] [nM] |
| --- | --- | --- | --- | --- | --- | --- | --- | --- | --- | --- | --- | --- | --- |
| COC(=O)CNC(=O)c1ccc(NC(=O)c2[nH]c(C)c(Cl)c2Cl)cc1OC(C)C | 44 | -5 | 6 | -5 |  |  |  |  |  |  |  |  |  |
| Cc1[nH]c(C(=O)Nc2ccc(C(=O)N[C@@H](C)C(=O)O)cc2OCCNC(=O)OC(C)(C)C)c(Cl)c1Cl | -1 | 5 | 5 | -11 | 590 | 1300 | 14 | 99 | 11 |  |  |  |  |
| Cc1[nH]c(C(=O)Nc2ccc(C(=O)N[C@@H](C)C(=O)NN)cc2OCCNC(=O)OC(C)(C)C)c(Cl)c1Cl | 64 | 12 | 5 | 7 |  |  | 19 |  | 13 |  |  |  |  |
| COC(=O)[C@H](Cc1ccccc1)NC(=O)c1ccc(NC(=O)c2cc(Br)c(Br)[nH]2)c(OCCN)c1 | 102 | 28 | 9 | 103 |  |  | 23 |  | 103 | 50 (≈ 30.4 µg/mL) | 25 (≈ 15.2 µg/mL) |  |  |
| COC(=O)[C@H](Cc1ccccc1)NC(=O)c1ccc(NC(=O)c2[nH]c(C)c(Cl)c2Cl)c(OC(C)C)c1 | 74 | 6 | 13 | -3 |  |  | 25 |  | -5 |  |  |  |  |
| Cc1[nH]c(C(=O)Nc2ccc(C(=O)N[C@@H](C)C(=O)O)cc2OC(C)C)c(Cl)c1Cl | 100 | 8 | 0 | -21 | 38 | 93 | -10 |  | 97 | 3.13 (≈ 1.38 µg/mL) | 50 (≈ 22.1 µg/mL) | 450 | 280 |
| COC(=O)[C@@H](NC(=O)c1ccc(NC(=O)c2cc(Br)c(Br)[nH]2)c(OC(C)C)c1)C(C)C | 59 | 6 | 13 | 33 |  |  | 22 |  | -9 |  |  |  |  |
| Cc1[nH]c(C(=O)Nc2ccc(C(=O)NCC(=O)O)c(OC(C)C)c2)c(Cl)c1Cl | 75 | 11 | 12 | -9 | 91 | 140 |  |  |  |  |  |  | 12000 |
| COC(=O)[C@@H](C)NC(=O)c1ccc(NC(=O)c2[nH]c(C)c(Cl)c2Cl)c(OC(C)C)c1 | -41 | 5 | 12 | 29 |  |  | 27 |  | 11 |  |  |  |  |
| Cc1[nH]c(C(=O)Nc2ccc(C(=O)N[C@@H](C)c3n[nH]c(=O)o3)cc2OCCNC(=O)OC(C)(C)C)c(Cl)c1Cl | 86 | 31 | -1 | 3 | 1600 |  | 2 |  | -5 | 100 (≈ 58.3 µg/mL) |  |  |  |
| Cc1[nH]c(C(=O)Nc2ccc(C(=O)N[C@@H](Cc3ccccc3)C(=O)O)cc2OC(C)C)c(Cl)c1Cl | 99 | 4 | -2 | -57 |  |  | 1 |  | 8 | 3.13 (≈ 1.62 µg/mL) |  |  |  |
| CC(C)(C)OC(=O)NCCOc1cc(C(=O)NCC(=O)O)ccc1NC(=O)c1cc(Br)c(Br)[nH]1 | 1 | 9 | 2 | 7 |  |  | -2 |  | 5 |  |  |  |  |
| Cc1[nH]c(C(=O)Nc2ccc(C(=O)N[C@@H](C)c3n[nH]c(=O)o3)cc2OCCN)c(Cl)c1Cl | -6 | 16 | 1 | 0 | 13 | 1000 | 13 |  | 88 |  | 50 (≈ 24.2 µg/mL) | 570 | 960 |
| CC(C)Oc1cc(C(=O)N[C@H](C(=O)O)C(C)C)ccc1NC(=O)c1cc(Br)c(Br)[nH]1 | 80 | 11 | -2 | -13 |  |  | -1 |  | 18 | > 75 |  |  |  |
| Cc1[nH]c(C(=O)Nc2ccc(C(=O)N[C@@H](C)C(=O)O)cc2OCCN)c(Cl)c1Cl | 36 | 10 | 4 | 17 | 28 | 110 | 5 |  | -4 |  |  | 530 | 3200 |
| NCCOc1cc(C(=O)NCC(=O)O)ccc1NC(=O)c1cc(Br)c(Br)[nH]1 | 0 | 11 | 0 | -2 |  |  | -5 |  | -8 |  |  |  |  |
| Cc1[nH]c(C(=O)Nc2ccc(C(=O)N[C@@H](C)C(=O)NN)cc2OC(C)C)c(Cl)c1Cl | 99 | 9 | 7 | 5 | 280 | 22000 | 3 | 92 | 7 | 6.25 (≈ 2.85 µg/mL) |  |  |  |
| COC(=O)[C@H](C)NC(=O)c1ccc(NC(=O)c2cc(Br)c(Br)[nH]2)c(OC(C)C)c1 | 65 | 9 | 5 | 42 |  |  | 11 |  | 97 |  | 25 (≈ 13.3 µg/mL) |  |  |
| Cc1[nH]c(C(=O)Nc2ccc(C(=O)N[C@H](C)C(=O)O)cc2OC(C)C)c(Cl)c1Cl | 101 | -1 | 4 | 59 | 41 | 1600 | 5 |  | 52 | 6.25 (≈ 2.76 µg/mL) |  | 7400 | 1300 |
| COC(=O)[C@H](C)NC(=O)c1ccc(NC(=O)c2[nH]c(C)c(Cl)c2Cl)c(OC(C)C)c1 | 57 | 8 | 0 | -45 |  |  | 6 |  | -12 |  |  |  |  |
| CN(C)CCOc1cc(NC(=O)c2cc(Br)c(Br)[nH]2)ccc1C(=O)NCC(=O)O | 14 | 4 | 7 | 28 |  |  |  |  |  |  |  |  |  |
